# Tests used:
# HIF1α = experiment: IHC of patient tumor biopsies, Phase 1a/b study; format: in vivo, human; conditions: colorectal and head and neck cancer patients, 10 mg and 20 mg QD, cycle 3 vs screening
# Method: A first-in-human, multicenter, open-label, Phase 1a/b dose-escalation and dose-expansion study to establish the maximum tolerated dose (MTD), recommended phase II dose (RP2D), and evaluate the safety and tolerability of once daily (QD) oral dosing of HC-7366 potassium salt monohydrate in a dose-escalating fashion in subjects with advanced solid tumors was conducted. Up to 36 subjects were enrolled into the Phase 1a dose-escalation part of the study. Approximately 50% of all subjects enrolled in this study were subjects with squamous cell carcinoma of the head and neck (SCCHN), colorectal cancer (CRC), non-small cell lung cancer (NSCLC), and transitional cell carcinoma of the bladder (TCC). […] The study was conducted in the United States at approximately 3 to 5 sites. This Phase 1a/b study followed a traditional 3+3 design. The starting dose level was 10 mg QD, escalating to 20, 40, 75, 125, and 150 mg QD as safety allowed. All doses were administered in the fasting state with water at least 1 hour before food or at least 2 hours after food. […]
# Tumor biopsies collected from colorectal cancer and head and neck cancer study patients at the time of screening and at cycle 3 were analyzed for HIF1α expression by IHC. […]
# [1] = Tolerability by body weight in tumor-bearing mice; format: in vivo; conditions: NCI-H1975 study
# Method: For routine monitoring, all study animals were monitored not only for tumor growth but also behavior such as mobility, food and water consumption (by cage side checking only), body weight (BW), eye/hair matting and any other abnormal effect. Any mortality and/or abnormal clinical signs were recorded. • 2.2.1 Body Weight (BW): Body weights of all animals were measured and recorded three times weekly throughout the study. Body weight change, expressed in %, is calculated using the following formula: […]
# [2] = system: Ki67 positive cells in DLD-1 tumor sections; experiment: IHC staining of Ki67 in DLD-1 tumor sections; format: in vivo, mice
# Method: DLD-1 (human colorectal cancer cells): Female 6-8 weeks old BALB/c nude mice were inoculated subcutaneously on the right flank with DLD-1 tumor cells (5×10^6) in 0.1 ml of RPMI1640 medium without serum for tumor development. The treatments were started when the mean tumor size reached approximately 195 mm^3 at Day 7 post inoculation and continued until end of study by twice daily oral gavage dosing of HC-7366 at listed doses (vehicle, 0.3 mg/kg HC-7366, 1 mg/kg HC-7366, 3 mg/kg HC-7366, 10 mg/kg HC-7366, or 30 mg/kg HC-7366, FIG. 10). For the time course study, tumors were harvested at Days 4, 7 and 14. Tumors were then used for IHC and RNAseq experiments (see Example 21).
# DLD-1 tumor bearing mice were treated with HC-7366 at 0.3, 1, 3, 10 and 30 mg/kg twice a day for 14 days. Tumors were harvested for RNAseq analysis at Day 4, Day 7 and Day 14 (FIG. 128).
# [3] = system: HCT116 (human colorectal cancer cells); experiment: In vivo tumor growth inhibition, HCT116 xenograft; set-up: species or system Athymic Nude-Foxn1nu mice
# Method: HCT116 (human colorectal cancer cells): Female 7-8 weeks old Athymic Nude-Foxn1nu mice were inoculated subcutaneously on the right flank with HCT116 tumor cells (5 ×10^6) in 0.1 ml of McCoy's 5a medium without serum for tumor development. Single agent HC-7366 was dosed at 3 or 30 mg/kg (twice daily, orally), Trametinib at 1 mg/kg (once a day, orally) and Alpelisib at 50 mg/kg (once a day, orally). HC-7366 was combined with either Trametinib or Alpelisib. The treatments were started when the mean tumor size reached approximately 270 mm^3 at Day 18 post inoculation and continued until end of study (FIGS. 63-64).
# [formula] • 2.2.2 Tumor Measurements: The measurement of tumor size was conducted three times weekly with a caliper and recorded. The tumor volume (mm^3) was estimated using the formula: TV=a×b^2/2, where “a” and “b” is long and short diameters of a tumor, respectively. Tumor volume was calculated using the formula [tumor volume (mm^3)=π/6×length×width^2).
# Regression was calculated using the formula=100×ΔT/T initial, if ΔT<0. Animals with 0 mm^3 tumor volume (no measurable tumor) for three consecutive measurements were considered as complete responders and animals with 50% tumor regressions were partial responders.
smiles,measurement,setting,value
"CNC(=O)c1ncn2cc(-c3c(F)ccc(NS(=O)(=O)c4cc(Cl)cnc4OC)c3F)ncc12 [HC-7366, 6-(3-((5-chloro-2-methoxypyridine)-3-sulfonamido)-2,6-difluorophenyl)-N-methylimidazo[1,5-a]pyrazine-1-carboxamide]",HIF1α expression in tumor biopsies,HIF1α,Profound inhibition
same,body weight loss,[1],No treatment related body weight loss
same,Ki67 positive cancer cells,"[2]; Day 4, 0.3, 10 or 30 mg/kg",not at the less efficacious doses
same,Ki67 positive cancer cells,"[2]; Day 4, 1 and 3 mg/kg",significantly reduced
same,TGI,"[3]; HC-7366 3 mg/kg twice daily, alpelisib study (FIG. 63), trend",~38%
same,effect on tumor growth,"[3]; HC-7366 30 mg/kg twice daily, alpelisib study (FIG. 63)",did not reduce tumor growth
same,efficacy,"[3]; HC-7366 at either 3 or 30 mg/kg, trametinib study (FIG. 64)",did not show efficacy

# Reference: patent US20250339426A1, “GCN2 MODULATOR FOR TREATING CANCER” (HIBERCELL, INC., priority 2022, published 2025)
